Columns and labels:
homocysteine = assay: Clinical investigation: homocysteine levels after six months versus baseline; assay type: in vivo, human; details: postmenopausal women, six months vs patient's baseline, p<0.05
Description: (§1) A clinical investigation was conducted which included 390 women (45-72 years old), who were an average of ten years postmenopausal. These patients were randomly assigned to the following treatment protocol: raloxifene hydrochloride at 60 mg per day via oral administration (cf. Formulation 2, supra), raloxifene at 120 mg per day, or HRT therapy. Homocysteine and C-reactive protein baseline levels were determined, prior to the initiation of therapy. Methods for such determinations are well known and can be found in the references cited, supra. The study was conducted for a period of six months. The levels of homocysteine and C-reactive protein in each patient were compared at the end of six months with that patient's baseline. Results were analyzed by variance. Raloxifene at 60 mg per day lowered levels of homocysteine by 8% (p<0.05) and C-reactive protein by 4% (NS). Raloxifene at 120 mg per day lowered homocysteine by 5.7% (p<0.05) and C-reactive protien by −3.9 (NS).

C-reactive protein = assay: Clinical investigation: C-reactive protein levels after six months versus baseline; assay type: in vivo, human; design: lowered C-reactive protein: unit not given here; details: postmenopausal women, six months vs patient's baseline, NS
Description: as §1

SMILES: Cl.O=C(c1ccc(OCCN2CCCCC2)cc1)c1c(-c2ccc(O)cc2)sc2cc(O)ccc12 [Raloxifene, [2-(4-hydroxyphenyl)-6-hydroxybenzo [b]thien-3-yl][4-[2-(1-piperidinyl)ethoxy]phenyl]methanone hydrochloride]
- lowered levels of homocysteine (homocysteine; 60 mg per day oral): 8%
- lowered homocysteine (homocysteine; 120 mg per day): 5.7%
- lowered levels of C-reactive protein (C-reactive protein; 60 mg per day oral): 4%
- lowered C-reactive protein (C-reactive protein; 120 mg per day): −3.9

Source: patent publication US6353003B1, “Method for reducing levels of homocysteine and C-reactive protein” (Eli Lilly and Company, priority 1998, dated 2002)
